Results as given in patent US20010044445A1, “AZOLE INHIBITORS OF CYTOKINE PRODUCTION” (priority 1999, published 2001).
Where two headings read alike, the source gives them in different places. One block for each compound: values may come before it.

How the values were obtained:
[1] = system: Human peripheral blood mononuclear cells; assay: Human Concanavalin-A Proliferation Assay (Con HU Assay); assay type: cell-based; settings: concanavalin-A stimulated human PBMC; for inhibition at 10 µM: concentration 10 μm (in parentheses in the cell); for IC50: tritiated thymidine
Method in brief: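 Histopaque-isolated human PBMC (50,000/well) were pre-incubated 15 min with compounds, then stimulated with concanavalin-A at 2.5 μg/ml final for 3 days at 37 °C, 5% CO2. Proliferation measured by 6 h pulse with 0.5 μCi/well [3H]thymidine and beta counting.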

IL-4 = assay: Measurement of IL-4 Levels in Human T Cells (IL-4 Assay); assay type: cell-based; settings: Human T cells (HUT 78), phorbol 12-myristate 13-acetate and anti-CD3, 32 hours, ELISA, read-out: IL-4 Inhibition IC50
Method: (§1) Measurement of IL-5 and IL-4 Levels in Human T Cells (IL-4 and IL-5 Assays) Human T cells (HUT 78) were cultured to 1×10^6/mL in RPMI 1640 medium containing 10% fetal calf serum, 100 U/mL penicillin and 100 μg/mL streptomycin. Cultures were then centrifuged, to pellet the cells, and cells resuspended in fresh medium to the same density. 0.2 mL samples of cells were incubated in 96-well plates with 8 μL of various concentrations of compound freshly diluted with the above medium from 100 mM solvent stocks (ethanol or DMSO). Immediately after addition of compound, cells were stimulated by addition of 2 ng/mL phorbol 12-myristate 13-acetate (1 μL of freshly prepared solution of stock (in DMSO) diluted with the above medium added to cells) and 750 μg/mL anti-CD3 (pre-coated at 4° C. overnight). Cell cultures were incubated at 37 OC for 32 hours, then cells pelleted by centrifugation and the supernatants harvested for ELISA. IL-4 and IL-5 ELISA's were performed according to standard procedures. Inhibition was calculated relative to cytokine levels produced from control stimulated cells not treated with compound.

IL-5 = assay: Measurement of IL-5 Levels in Human T Cells (IL-5 Assay); assay type: cell-based; settings: Human T cells (HUT 78), phorbol 12-myristate 13-acetate and anti-CD3, 32 hours, ELISA, read-out: IL-5 Inhibition IC50
Method: as §1

IL-2 = assay: CD3 and CD28 Activation of Peripheral Blood T Cells and Determination of Secreted IL-2 Levels (C28 HU Assay); assay type: cell-based, Human; settings: PBMC stimulated with anti-CD3 and anti CD28 mAbs, 24 hour; for IC50: IL-2 secretion; for inhibition at 1 µM: concentration 1 μM (in c2); for inhibition at 1 µM / inhibition at 100 µM: read-out: % Inhibition of IL-2 secretion (At concentrations of 1, 10, or 100 μM); for inhibition at 100 µM: concentration 100 μM (in c2)
Method: Human peripheral blood mononuclear cells were cultured in RPMI 1640 medium supplemented with 10 μg/ml gentamicin, 50 μM 2-mercaptoethanol, 1X MEM non-essential amino acids (Sigma Chemical Co., St. Louis, Mo.), 100 U/ml sodium penicillin G, 100 μg/ml streptomycin sulfate, 2 mM L-glutamine, 1 mM sodium pyruvate (Life Technologies, Grand Island, N.Y.) and 10% fetal bovine serum (Hyclone, Logan, Utah) at 37° C. with 5% CO2.
Human peripheral blood mononuclear cells (PBMC) were isolated by Ficoll-Hypaque seperation. PBMCs were stimulated with a combination of immobilized anti-CD3 and soluble anti CD28 mAbs as described in Faltynek, et al. J. Enzyme Inhibition 1995, 9, 111-122, hereby incorporated by reference. Following a 24 hour incubation, cell supernatants were harvested and IL-2 levels were determined. 100 μl of 5 μg/ml monoclonal murine anti-human IL-2 antibody (Biosource International) in D-PBS was added to 96 well Maxisorb plates (Nunc) and incubated at 4° C. overnight. Plates were washed 4 times with D-PBS containing 0.05% Tween 20 (wash buffer) and blocked with D-PBS containing 1% BSA and 10 mM NaN3 (Diluent/Blocking buffer) for 1-3 hours at room temperature or overnight at 4° C. Plates were washed and recombinant human IL-2 diluted (at 10,000, 5,000, 2,500, 1,250, 625, 312.5, 156.25, 78, 39, 20 pg/ml) in diluent/blocking buffer containing a matched percentage of complete RPMI 1640 medium as the unknown samples. Tissue culture supernatant at various dilutions were added in triplicate at 100 μl/well. Plates were incubated for 2 hours at room temperature and washed 4 times with wash buffer. 100 pl of rabbit anti-human IL-2 (10 μg/ml, Genzyme) was added and incubated for 1 hour at room temperature. The incubation was followed by 4 washes and subsequent addition of 100 pl of 1:2000 dilution of alkaline phosphatase-conjugated goat anti-rabbit F(ab′)2 (Biosource International). After 1 hour the plates were washed 4 times and 100 μl of pNPP (Southern Biotech or Sigma) at 1 mg/ml in buffer was added. Color development was allowed to proceed at room temperature for 20 minutes before addition of 50 μl of 2 N NaOH. Absorbance at 405 nm was determined using a plate reader (Molecular Devices). IL-2 concentrations were calcualted using SoftMax (Molecular Devices) based on the IL-2 standard solutions.

[2] = Homo sapiens, PBMC, 72 h, 3 days, read-out: % Inhibition of proliferation (at concentrations of 1,10, or 100 μm)
[3] = concentration 100 μm (in parentheses in the cell), 3 days

SMILES: O=C(Nc1ccc(-n2nc(C(F)(F)F)cc2C(F)(F)F)cc1)c1ccc(Oc2cc(Cl)cc(Cl)c2)o1 [Example 8, N-[4-[3,5-bis(trifluoromethyl)-1H-pyrazol-1-yl]phenyl]-5-(3,5-dichlorophenoxy)-2-furancarboxamide]
melting point: 152 to 153 °C | inhibition at 1 µM (IL-2; Homo sapiens): 20%

SMILES: C=CC[C@@H]1/C=C(\C)C[C@H](C)C[C@H](OC)[C@H]2O[C@@](O)(C(=O)C(=O)N3CCCC[C@H]3C(=O)O[C@H](/C(C)=C/[C@@H]3CC[C@@H](O)[C@H](OC)C3)[C@H](C)[C@@H](O)CC1=O)[C@H](C)C[C@@H]2OC [FK-506, tacrolimus, reference compound]
IC50 (IL-4; HuT78): 0.7 nM | IC50 (IL-5; HuT78): 0.5 nM

SMILES: O=C(CCC1CCCC1)Nc1ccc(-n2nc(C(F)(F)F)cc2C(F)(F)F)cc1 [Example 99, N-[4-[3,5-bis(trifluoromethyl)-1H-pyrazol-1-yl]phenyl]cyclopentanepropanamide]
melting point: 130 to 132 °C | inhibition at 1 µM (IL-2; Homo sapiens): 9%

SMILES: CC(C)(C)OC(=O)NCCCCCCC(=O)Nc1ccc(-n2nc(C(F)(F)F)cc2C(F)(F)F)cc1 [Example 64, 1,1-dimethylethyl [7-[[4-[3,5-bis(trifluoromethyl)-1H-pyrazol-1-yl]phenyl]amino]-7-oxoheptyl]carbamate]
melting point: 86 to 88 °C | IC50 (IL-2; Homo sapiens): 22300 nM | inhibition at 100 µM (IL-2; Homo sapiens): 86%

SMILES: Cc1ccnn1-c1ccc(NC(=O)c2ccc(Cl)cc2)cc1 [Example 284, 4-Chloro-N-[4-(5-methyl-1H-pyrazol-1-yl)phenyl]benzamide]
melting point: 189 to 191 °C | inhibition at 1 µM (IL-2; Homo sapiens): 17%

SMILES: CCCCC(CC)C(=O)Nc1ccc(-n2nc(C(F)(F)F)cc2C(F)(F)F)cc1 (stereo not drawn) [Example 72, N-[4-[3,5-bis(trifluoromethyl)-1H-pyrazol-1-yl]phenyl]-2-ethylhexanamide]
melting point: 127 to 128 °C | inhibition at 1 µM (IL-2; Homo sapiens): 11%

SMILES: Cc1noc(C)c1C(=O)Nc1ccc(-n2nc(C(F)(F)F)cc2C(F)(F)F)cc1 [Example 266, N-[4-[3,5-bis(trifluoromethyl)-1H-pyrazol-1-yl]phenyl]-3,5-dimethyl-4-isoxazolecarboxamide]
inhibition at 100 µM ([1]; Homo sapiens, PBMC, 72 h, concentration 100 μm (in parentheses in the cell), 3 days, read-out: % Inhibition of proliferation (at concentrations of 1,10, or 100 μm)): 100% | IC50 ([1]; Homo sapiens, PBMC): 322 nM | IC50 (IL-4; HuT78): 110 nM | IC50 (IL-5; HuT78): 150 nM | melting point: 179 to 180 °C | IC50 (IL-2; Homo sapiens): 314 nM | inhibition at 100 µM (IL-2; Homo sapiens): 88%

SMILES: Cc1noc(C)c1C(=O)Nc1ccc(-n2nccc2C)cc1 [Example 286, 3,5-dimethyl-N-[4-(5-methyl-1H-pyrazol-1-yl)phenyl]-4-isoxazolecarboxamide]
melting point: 151 to 152 °C | inhibition at 1 µM (IL-2; Homo sapiens): 2%

Continued, in another order:

IC50 (IL-4; HuT78): 5 nM | IC50 (IL-5; HuT78): 38 nM | melting point: 147 to 149 °C
SMILES: O=C(Nc1ccc(-n2nc(C(F)(F)F)cc2C(F)(F)F)cc1)c1cccc(F)c1F [Example 209, N-[4-[3,5-bis(trifluoromethyl)-1H-pyrazol-1-yl]phenyl]-2,3-difluorobenzamide]
inhibition at 10 µM [1, 2]: 99% | IC50 ([1]; Homo sapiens, PBMC): 33 nM

IC50 (IL-4): 150 nM | IC50 (IL-5): 150 nM | IC50 (IL-2): 380 nM
SMILES: O=C(Nc1ccc(Cl)cc1)c1ccc(-n2nc(C(F)(F)F)cc2C(F)(F)F)cc1 [Example 24, N-4-[3,5-bis(trifluoromethyl)-1H-pyrazol-1-yl]-N-(4-chlorophenyl)benzamide]
IC50 [1]: 301 nM | % Inhibition of proliferation (at concentrations of 1,10, or 100 μm) [1, 3]: 98(100) %

IC50 (IL-4; HuT78): 4.8 nM | IC50 (IL-5; HuT78): 22 nM
SMILES: O=C(Nc1ccc(-n2nc(C(F)(F)F)cc2C(F)(F)F)cc1)c1ccncc1F [Example 264, N-[4-[3,5-bis(trifluoromethyl)-1H-pyrazol-1-yl]phenyl]-3-fluoro-4-pyridinecarboxamide]
inhibition at 10 µM [1, 2]: 100% | IC50 ([1]; Homo sapiens, PBMC): 42 nM

melting point: 179 to 182 °C
SMILES: O=C(Nc1ccc(-n2nc(C(F)(F)F)cc2C(F)(F)F)cc1)c1ccco1 [Example 113, N-[4-[3,5-bis(trifluoromethyl)-1H-pyrazol-1-yl]phenyl]-2-furancarboxamide]
inhibition at 1 µM (IL-2; Homo sapiens): 19%

melting point: 199 to 201 °C | IC50 (IL-2; Homo sapiens): 457 nM
SMILES: O=C(Nc1ccc(-n2nc(C(F)(F)F)cc2C(F)(F)F)cc1)C1CCc2ccccc2C1 (stereo not drawn) [Example 153, N-[4-[3,5-bis(trifluoromethyl)-1H-pyrazol-1-yl]phenyl]-1,2,3,4-tetrahydro-2-naphthalenecarboxamide]
inhibition at 100 µM (IL-2; Homo sapiens): 94%

melting point: 129 to 130 °C
SMILES: CCCCCCCNC(=O)Nc1ccc(-n2nc(C(F)(F)F)cc2C(F)(F)F)cc1 [Example 47, N-[4-[3,5-bis(trifluoromethyl)-1H-pyrazol-1-yl]phenyl]-N′-heptylurea]
inhibition at 1 µM (IL-2; Homo sapiens): 2%

IC50 (IL-4; HuT78): 8 nM | IC50 (IL-5; HuT78): 50 nM | melting point: 146 to 148 °C
SMILES: O=C(Nc1ccc(-n2nc(C(F)(F)F)cc2C(F)(F)F)cc1)C1=CCCCC1 [Example 6, N-[4-[3,5-bis(trifluoromethyl)-1H-pyrazol-1-yl]phenyl]-1-cyclohexene-1-carboxamide]
inhibition at 10 µM [1, 2]: 100% | IC50 ([1]; Homo sapiens, PBMC): 98 nM

melting point: 185 to 187 °C
SMILES: O=C(Nc1ccccc1)Nc1ccc(-n2nc(C(F)(F)F)cc2C(F)(F)F)cc1 [Example 36, N-[4-[3,5-bis(trifluoromethyl)-1H-pyrazol-1-yl]phenyl]-N′-phenylurea]
inhibition at 1 µM (IL-2; Homo sapiens): 10%

IC50 (IL-4): 50 nM | IC50 (IL-5): 80 nM | IC50 (IL-2): 102 nM
SMILES: Cc1nnsc1C(=O)Nc1ccc(-n2nc(C(F)(F)F)cc2C(F)(F)F)cc1 [Example 250, N-[4-[3,5-bis(trifluoromethyl)-1H-pyrazol-1-yl]phenyl]-4-methyl-1,2,3-thiadizole-5-carboxamide]
IC50 [1]: 173 nM | % Inhibition of proliferation (at concentrations of 1,10, or 100 μm) [1, 3]: 100(100) %

melting point: > 230 °C
SMILES: O=C(Nc1ccc(-n2nc(C(F)(F)F)cc2C(F)(F)F)cc1)c1cccs1 [Example 131, N-[4-[3,5-bis(trifluoromethyl)-1H-pyrazol-1-yl]phenyl]-2-thiophenecarboxamide]
inhibition at 1 µM (IL-2; Homo sapiens): 32%
